US8143244B2, “Cyclopropyl fused indolobenzazepine HCV NS5B inhibitors” (Bristol-Myers Squibb Company, priority 2009, dated 2012)
Where two headings read alike, the source gives them in different places. Blank lines part the entries; values can stand above or below the compound they belong to.

How the values were obtained:
HCV replicon = HCV replicon FRET / luciferase assay (NeoLuc); type: cell-based, HCV genotype 1b; settings: Hepatitis C virus, HCV replicon cells
From the text: FRET Assay Preparation. To perform the HCV FRET screening assay, 96-well cell culture plates were used. The FRET peptide (Anaspec, Inc.) (Taliani et al., Anal. Biochem. 1996, 240, 60-67) contains a fluorescence donor, EDANS, near one end of the peptide and an acceptor, DABCYL, near the other end. The fluorescence of the peptide is quenched by […] resonance energy transfer (RET) between the donor and the acceptor, but as the NS3 protease cleaves the peptide the products are released from RET quenching and the fluorescence of the donor becomes apparent. The assay reagent was made as follows: 5× cell Luciferase cell culture lysis reagent from Promega (#E153A) diluted to 1× with dH2O, NaCl added to 150 mM final, the FRET peptide diluted to 20 μM final from a 2 mM stock.
To prepare plates, HCV replicon cells, with or without a Renilla luciferase reporter gene, were trypsinized and placed into each well of a 96-well plate with titrated test compounds added in columns 3 through 12; columns 1 and 2 contained a control compound (HCV protease inhibitor), and the bottom row contained cells without compound. The plates were then placed in a CO2 incubator at 37° C.
Assays. Subsequent to addition of the test compounds described above (FRET Assay Preparation), at various times the plate was removed and Alamar blue solution (Trek Diagnostics, #00-100) was added per well as a measure of cellular toxicity. After reading in a Cytoflour 4000 instrument (PE Biosystems), plates were rinsed with PBS and then used for FRET assay by the addition of 30 ul of the FRET peptide assay reagent described above (FRET Assay Preparation) per well. The plate was then placed into the Cytoflour 4000 instrument which had been set to 340 excite/490 emission, automatic mode for 20 cycles and the plate read in a kinetic mode. Typically, the signal to noise using an endpoint analysis after the reads was at least three-fold. Alternatively, after Alamar blue reading, plates were rinsed with PBS, 50 ul of DMEM (high glucose) without phenol red was added and plates were then used for luciferase assay using the Promega Dual-Glo Luciferase Assay System,
Compound analysis was deteiniined by quantification of the relative HCV replicon inhibition and the relative cytotoxicity values. To calculate cytoxicity values, the average Alamar Blue fluorescence signals from the control wells were set as 100% non-toxic. The individual signals in each of the compound test wells were then divided by the average control signal and multiplied by 100% to determine […]. To calculate the HCV replicon inhibition values, an average background value was obtained from the two wells containing the highest amount of HCV protease inhibitor at the end of the assay period. These numbers were similar to those obtained from naïve Huh-7 cells.
The background numbers were then subtracted from the average signal obtained from the control wells and this number was used as 100% activity. The individual signals in each of the compound test wells were then divided by the averaged control values after background subtraction and multiplied by 100% to determine percent activity. EC50 values for a protease inhibitor titration were calculated as the concentration which caused a 50% reduction in FRET or luciferase activity. The two numbers generated for the compound plate, percent cytoxicity and percent activity were used to determine compounds of interest for further analysis.

HCV NS5B = molecular target: T1, HCV NS5B (Hepatitis C virus genotype 1b, UniProt Q9WMX2); assay: HCV NS5B RdRp enzyme assay; type: biochemical; settings: HCV NS5B RdRp genotype 1b
T1 construct: The protein was expressed with an 18 amino acid C-terminal truncation to enhance the solubility; made in house; host or cells: E. coli BL21(DE3)
Protocol: HCV NS5B RdRp cloning, expression, and purification. The cDNA encoding the NS5B protein of HCV, genotype 1b, was cloned into the pET21a expression vector. The protein was expressed with an 18 amino acid C-terminal truncation to enhance the solubility. The E. coli competent cell line BL21(DE3) was used for expression of the protein. Cultures were grown at 37° C. for ˜4 hours until the cultures reached an optical density of 2.0 at 600 nm. The cultures were cooled to 20° C. and induced with 1 mM IPTG. Fresh ampicillin was added to a final concentration of 50 μg/ml and the cells were grown overnight at 20° C.
Cell pellets (3L) were lysed for purification to yield 15-24 mgs of purified NS5B. The lysis buffer consisted of 20 mM Tris-HCl, pH 7.4, 500 mM NaCl, 0.5% triton X-100, 1 mM DTT, 1 mM EDTA, 20% glycerol, 0.5 mg/ml lysozyme, 10 mM MgCl2, 15 ug/ml deoxyribonuclease I, and Complete TM protease inhibitor tablets (Roche). After addition of the lysis buffer, frozen cell pellets were resuspended using a tissue homogenizer. To reduce the viscosity of the sample, aliquots of the lysate were sonicated on ice using a microtip attached to a Branson sonicator. The sonicated lysate was centrifuged at 100,000×g for 1 hr at 4° C. and filtered through a 0.2 μm filter unit (Corning).
The protein was purified using three sequential chromatography steps: Heparin sepharose CL-6B, polyU sepharose 4B, and Hitrap SP sepharose (Pharmacia). The chromatography buffers were identical to the lysis buffer but contained no lysozyme, deoxyribonuclease I, MgCl2 or protease inhibitor and the NaCl concentration of the buffer was adjusted according to the requirements for charging the protein onto the column. Each column was eluted with a NaCl gradient which varied in length from 5-50 column volumes depending on the column type. After the final chromatography step, the resulting purity of the enzyme is >90% based on SDS-PAGE analysis. The enzyme was aliquoted and stored at −80° C.
Standard HCV NS5B RdRp enzyme assay. HCV RdRp genotype 1b assays were run in a final volume of 60 μl in 96 well plates (Costar 3912). The assay buffer is composed of 20 mM Hepes, pH 7.5, 2.5 mM KCl, 2.5 mM MgCl2, 1 mM DTT, 1.6 U RNAse inhibitor (Promega N2515), 0.1 mg/ml BSA (Promega R3961), and 2% glycerol. All compounds were serially diluted (3-fold) in DMSO and diluted further in water such that the final concentration of DMSO in the assay was 2%. HCV RdRp genotype 1b enzyme was used at a final concentration of 28 nM. A polyA template was used at 6 nM, and a biotinylated oligo-dT12 primer was used at 180 nM final concentration. Template was obtained commercially (Amersham 27-4110). Biotinylated primer was prepared by Sigma Genosys. 3H-UTP was used at 0.6 μCi (0.29 μM total UTP). Reactions were initiated by the addition of enzyme, incubated at 30° C. for 60 min, and stopped by adding 25 μl of 50 mM EDTA containing SPA beads (4 μg/μl, Amersham RPNQ 0007). Plates were read on a Packard Top Count NXT after >1 hr incubation at room temperature.
Modified HCV NS5B RdRp enzyme assay. A modified enzyme assay was performed essentially as described for the standard enzyme assay except for the following: The biotinylated oligo dT12 primer was precaptured on streptavidin-coated SPA beads by mixing primer and beads in assay buffer and incubating at room temperature for one hour. Unbound primer was removed after centrifugation. The primer-bound beads were resuspended in 20 mM Hepes buffer, pH 7.5 and used in the assay at final concentrations of 20 nM primer and 0.67 μg/μl beads. Order of addition in the assay: enzyme (14 nM) was added to diluted compound followed by the addition of a mixture of template (0.2 nM), 3H-UTP (0.6 μCi, 0.29 μM), and primer-bound beads, to initiate the reaction; concentrations given are final. Reactions were allowed to proceed for 4 hours at 30° C.
IC50 values for compounds were determined using seven different [I]. […]

[1] = genotype 1b, read-out: NeoLuc EC50, Table 1, genotype 1b

T1 sequence (Q9WMX2 2420-2992): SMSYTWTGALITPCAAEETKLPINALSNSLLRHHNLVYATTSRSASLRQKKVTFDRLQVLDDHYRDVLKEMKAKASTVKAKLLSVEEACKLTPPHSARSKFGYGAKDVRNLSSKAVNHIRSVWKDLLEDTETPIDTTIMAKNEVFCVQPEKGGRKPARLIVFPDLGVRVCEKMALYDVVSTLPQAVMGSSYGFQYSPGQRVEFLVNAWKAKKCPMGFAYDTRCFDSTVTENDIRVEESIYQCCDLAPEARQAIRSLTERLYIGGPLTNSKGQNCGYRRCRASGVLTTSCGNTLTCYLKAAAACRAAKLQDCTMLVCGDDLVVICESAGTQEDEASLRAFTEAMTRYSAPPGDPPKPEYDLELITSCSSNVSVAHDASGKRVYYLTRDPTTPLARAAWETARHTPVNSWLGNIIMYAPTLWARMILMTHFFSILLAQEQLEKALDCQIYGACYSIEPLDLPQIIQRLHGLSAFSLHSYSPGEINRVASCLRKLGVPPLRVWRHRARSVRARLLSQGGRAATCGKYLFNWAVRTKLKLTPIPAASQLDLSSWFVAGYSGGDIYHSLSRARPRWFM

SMILES: COc1ccc2c(c1)C1CC1(C(=O)N1CC34COCC3(CN(C)C4)C1)Cn1c-2c(C2CCCCC2)c2ccc(C(=O)NS(=O)(=O)CC(C)C)cc21 (stereo not shown)
EC50 (HCV replicon; [1]): 1.9 to 500 nM
IC50 (HCV NS5B; Table 1): 1.9 to 500 nM

SMILES: CNC(=O)N1CC23COCC2(C1)CN(C(=O)[C@]12C[C@H]1c1cc(OC)ccc1-c1c(C4CCCCC4)c4ccc(C(=O)NS(=O)(=O)C(C)C)cc4n1C2)C3 (stereo partly shown)
EC50 (HCV replicon; [1]): 1.9 to 500 nM
IC50 (HCV NS5B; Table 1): 1.9 to 500 nM

SMILES: CCN1CC23COCC2(C1)CN(C(=O)C12CC1c1cc(OC)ccc1-c1c(C4CCCCC4)c4ccc(C(=O)NS(=O)(=O)C(C)C)cc4n1C2)C3 (stereo not shown)
EC50 (HCV replicon; [1]): 1.9 to 500 nM
IC50 (HCV NS5B; Table 1): 1.9 to 500 nM

SMILES: C=C(C)S(=O)(=O)NC(=O)c1ccc2c(C3CCCCC3)c3n(c2c1)C[C@@]1(C(=O)N2C[C@]4(COC)CN(C)C[C@]4(COC)C2)C[C@H]1c1cc(OC)ccc1-3
EC50 (HCV replicon; [1]): 1.9 to 500 nM
IC50 (HCV NS5B; Table 1): < 20 nM

SMILES: COc1ccc2c(c1)[C@@H]1C[C@]1(C(=O)N1CC34COCC3(C1)CN(C1CC1)C4)Cn1c-2c(C2CCCCC2)c2ccc(C(=O)NS(=O)(=O)N(C)C)cc21 (stereo partly shown)
EC50 (HCV replicon; [1]): 1.9 to 500 nM
IC50 (HCV NS5B; Table 1): 1.9 to 500 nM

SMILES: COc1ccc2c(c1)C1CC1(C(=O)N1CC34CNCC3(COC4)C1)Cn1c-2c(C2CCCCC2)c2ccc(C(=O)NS(=O)(=O)CC(C)C)cc21 (stereo not shown)
EC50 (HCV replicon; [1]): 1.9 to 500 nM
IC50 (HCV NS5B; Table 1): 1.9 to 500 nM

SMILES: C=C(C)S(=O)(=O)NC(=O)c1ccc2c(C3CCCCC3)c3n(c2c1)C[C@@]1(C(=O)N2C[C@@]4(COC)CNC[C@@]4(COC)C2)C[C@H]1c1cc(OC)ccc1-3
EC50 (HCV replicon; [1]): 500 to 1000 nM
IC50 (HCV NS5B; Table 1): < 20 nM

SMILES: C=C(C)S(=O)(=O)NC(=O)c1ccc2c(C3CCCCC3)c3n(c2c1)C[C@@]1(C(=O)N2CC45CNCC4(COC5)C2)C[C@H]1c1cc(OC)ccc1-3 (stereo partly shown)
EC50 (HCV replicon; [1]): 1.9 to 500 nM
IC50 (HCV NS5B; Table 1): < 2.3 nM

SMILES: COc1ccc2c(c1)[C@@H]1C[C@]1(C(=O)N1CC34CCC3(C1)CN(C1CC1)C4)Cn1c-2c(C2CCCCC2)c2ccc(C(=O)NS(=O)(=O)C(C)C)cc21 (stereo partly shown)
EC50 (HCV replicon; [1]): 1.9 to 500 nM
IC50 (HCV NS5B; Table 1): 1.9 to 500 nM

SMILES: COc1ccc2c(c1)C1CC1(C(=O)N1CC34COCC3(CN(C)C4)C1)Cn1c-2c(C2CCCCC2)c2ccc(C(=O)NS(=O)(=O)C(C)C)cc21 (stereo not shown)
EC50 (HCV replicon; [1]): 1.9 to 500 nM
IC50 (HCV NS5B; Table 1): < 2.3 nM

SMILES: COC[C@]12CNC[C@@]1(COC)CN(C(=O)C13CC1c1cc(OC)ccc1-c1c(C4CCCCC4)c4ccc(C(=O)NS(=O)(=O)C(C)C)cc4n1C3)C2 (stereo partly shown)
EC50 (HCV replicon; [1]): 1.9 to 500 nM

SMILES: C=C(/C=C1\C(=C)c2c(C3CCCCC3)c3ccc(C(=O)NS(=O)(=O)C(C)C)cc3n2CC2(C(=O)N3CC45CNCC4(CNC5)C3)CC12)OC (stereo not shown)
EC50 (HCV replicon; [1]): > 1000 nM
IC50 (HCV NS5B; Table 1): < 2.3 nM

SMILES: CCOCCN1CC23COCC2(C1)CN(C(=O)[C@]12C[C@H]1c1cc(OC)ccc1-c1c(C4CCCCC4)c4ccc(C(=O)NS(=O)(=O)C(C)C)cc4n1C2)C3 (stereo partly shown) [drawing 112]
EC50 (HCV replicon; Table 2, read-out: NeoLuc EC50): 7.69 nM
IC50 (HCV NS5B; Table 2): 1.9 nM

SMILES: COc1ccc2c(c1)C1CC1(C(=O)N1CC34CNCC3(COC4)C1)Cn1c-2c(C2CCCCC2)c2ccc(C(=O)NS(=O)(=O)C(C)C)cc21 (stereo not shown)
EC50 (HCV replicon; [1]): 1.9 to 500 nM
IC50 (HCV NS5B; Table 1): 1.9 to 500 nM

SMILES: COC[C@@]12CN(C)C[C@]1(COC)CN(C(=O)C13CC1c1cc(OC)ccc1-c1c(C4CCCCC4)c4ccc(C(=O)NS(=O)(=O)C(C)C)cc4n1C3)C2 (stereo partly shown)
EC50 (HCV replicon; [1]): 1.9 to 500 nM
IC50 (HCV NS5B; Table 1): 1.9 to 500 nM

SMILES: COc1ccc2c(c1)C1CC1(C(=O)N1CC34CN(C)CC3(CN(C)C4)C1)Cn1c-2c(C2CCCCC2)c2ccc(C(=O)NS(=O)(=O)C(C)C)cc21 (stereo not shown)
EC50 (HCV replicon; [1]): 1.9 to 500 nM
IC50 (HCV NS5B; Table 1): < 2.3 nM

IC50 (HCV NS5B; Table 1): 1.9 to 500 nM
SMILES: COC(=O)N1CC23COCC2(C1)CN(C(=O)[C@]12C[C@H]1c1cc(OC)ccc1-c1c(C4CCCCC4)c4ccc(C(=O)NS(=O)(=O)C(C)C)cc4n1C2)C3 (stereo partly shown)

SMILES: CNC(=O)N1CC23COCC2(C1)CN(C(=O)[C@]12C[C@H]1c1cc(OC)ccc1-c1c(C4CCCCC4)c4ccc(C(=O)NS(=O)(=O)N(C)C)cc4n1C2)C3 (stereo partly shown)
EC50 (HCV replicon; [1]): 1.9 to 500 nM
IC50 (HCV NS5B; Table 1): 1.9 to 500 nM

IC50 (HCV NS5B; Table 1): > 1000 nM
SMILES: COC(=O)N1CC23COCC2(C1)CN(C(=O)[C@]12C[C@H]1c1cc(OC)ccc1-c1c(C4CCCCC4)c4ccc(C(=O)NS(=O)(=O)N(C)C)cc4n1C2)C3 (stereo partly shown)

SMILES: CCOCCN1CC23COCC2(C1)CN(C(=O)[C@]12C[C@H]1c1cc(OC)ccc1-c1c(C4CCCCC4)c4ccc(C(=O)NS(=O)(=O)C(C)C)cc4n1C2)C3 (stereo partly shown) [drawing 101]
EC50 (HCV replicon; [1]): 1.9 to 500 nM
IC50 (HCV NS5B; Table 1): 1.9 to 500 nM
